Assays:
Test in all cases: Test C preemergence
Format in all cases: in vivo
[1] = system: Galium (catchweed bedstraw, Galium aparine); details: for Plant response rating, Galium: scale 0 to 100, 0 no effect, 100 complete control
In short: (§1)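 Visual rating, 0–100 scale (0 = no effect, 100 = complete control) versus controls, 13–15 d after treatment. Compounds in non-phytotoxic solvent plus surfactant; applied preemergence to seeds in loam/sand soil or postemergence to 1- to 4-leaf plants (2–18 cm) in peat/vermiculite medium; greenhouse-held.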

[2] = system: barnyardgrass (Echinochloa crus-galli); details: for Plant response rating, Barnyardgrass: scale 0 to 100, 0 no effect, 100 complete control
In short: as §1

[3] = system: blackgrass (Alopecurus myosuroides); details: for Plant response rating, Blackgrass: scale 0 to 100, 0 no effect, 100 complete control
In short: as §1

corn (Zea mays) = details: for Plant response rating, Corn: scale 0 to 100, 0 no effect, 100 complete control
In short: as §1

[4] = system: crabgrass, large (large crabgrass, Digitaria sanguinalis); details: for Plant response rating, Crabgrass, Large: scale 0 to 100, 0 no effect, 100 complete control
In short: as §1

[5] = system: foxtail, giant (giant foxtail, Setaria faberii); details: for Plant response rating, Foxtail, Giant: scale 0 to 100, 0 no effect, 100 complete control
In short: as §1

[6] = system: johnsongrass (Sorghum halepense); details: for Plant response rating, Johnsongrass: scale 0 to 100, 0 no effect, 100 complete control
In short: as §1

[7] = system: morningglory (Ipomoea coccinea); details: for Plant response rating, Morningglory: scale 0 to 100, 0 no effect, 100 complete control
In short: as §1

[8] = system: nutsedge, yellow (yellow nutsedge, Cyperus esculentus); details: for Plant response rating, Nutsedge, Yellow: scale 0 to 100, 0 no effect, 100 complete control
In short: as §1

[9] = system: oilseed rape (Brassica napus); details: for Plant response rating, Oilseed Rape: scale 0 to 100, 0 no effect, 100 complete control
In short: as §1

[10] = system: pigweed (Amaranthus retroflexus); details: for Plant response rating, Pigweed: scale 0 to 100, 0 no effect, 100 complete control
In short: as §1

[11] = system: ragweed (common ragweed, Ambrosia elatior); details: for Plant response rating, Ragweed: scale 0 to 100, 0 no effect, 100 complete control
In short: as §1

[12] = system: ryegrass, Italian (Italian ryegrass, Lolium multiflorum); details: for Plant response rating, Ryegrass, Italian: scale 0 to 100, 0 no effect, 100 complete control
In short: as §1

soybean (Glycine max) = details: for Plant response rating, Soybean: scale 0 to 100, 0 no effect, 100 complete control
In short: as §1

[13] = system: velvetleaf (Abutilon theophrasti); details: for Plant response rating, Velvetleaf: scale 0 to 100, 0 no effect, 100 complete control
In short: as §1

[14] = system: waterhemp (common waterhemp, Amaranthus rudis); details: for Plant response rating, Waterhemp: scale 0 to 100, 0 no effect, 100 complete control
In short: as §1

[15] = system: wheat (winter wheat, Triticum aestivum); details: for Plant response rating, Wheat: scale 0 to 100, 0 no effect, 100 complete control
In short: as §1

[16] = 31 g ai/ha, 0 is no effect, 100 is complete control

Structure (SMILES): CN1CC(c2ccc(F)c(F)c2)C(C(=O)Nc2ccccc2C(F)(F)F)C1=O (centres unmarked) [Compound 641]
- Plant response rating (scale of 0 to 100), Galium [1, 16]: 0
- Plant response rating, Galium ([1]; 62 g ai/ha): 30
- Plant response rating, Galium ([1]; 125 g ai/ha): 90
- Plant response rating, Galium ([1]; 250 g ai/ha): 85
- Plant response rating (scale of 0 to 100), Barnyardgrass [2, 16]: 85
- Plant response rating, Barnyardgrass ([2]; 62 g ai/ha): 90
- Plant response rating, Barnyardgrass ([2]; 125 g ai/ha): 90
- Plant response rating, Barnyardgrass ([2]; 250 g ai/ha): 95
- Plant response rating (scale of 0 to 100), Blackgrass [3, 16]: 0
- Plant response rating, Blackgrass ([3]; 62 g ai/ha): 45
- Plant response rating, Blackgrass ([3]; 125 g ai/ha): 30
- Plant response rating, Blackgrass ([3]; 250 g ai/ha): 70
- Plant response rating (scale of 0 to 100), Corn (corn (Zea mays); [16]): 0
- Plant response rating, Corn (corn (Zea mays); 62 g ai/ha): 0
- Plant response rating, Corn (corn (Zea mays); 125 g ai/ha): 0
- Plant response rating, Corn (corn (Zea mays); 250 g ai/ha): 10
- Plant response rating (scale of 0 to 100), Crabgrass, Large [4, 16]: 98
- Plant response rating, Crabgrass, Large ([4]; 62 g ai/ha): 100
- Plant response rating, Crabgrass, Large ([4]; 125 g ai/ha): 100
- Plant response rating, Crabgrass, Large ([4]; 250 g ai/ha): 100
- Plant response rating (scale of 0 to 100), Foxtail, Giant [5, 16]: 90
- Plant response rating, Foxtail, Giant ([5]; 62 g ai/ha): 90
- Plant response rating, Foxtail, Giant ([5]; 125 g ai/ha): 90
- Plant response rating, Foxtail, Giant ([5]; 250 g ai/ha): 95
- Plant response rating (scale of 0 to 100), Johnsongrass [6, 16]: 0
- Plant response rating, Johnsongrass ([6]; 62 g ai/ha): 0
- Plant response rating, Johnsongrass ([6]; 125 g ai/ha): 10
- Plant response rating, Johnsongrass ([6]; 250 g ai/ha): 60
- Plant response rating (scale of 0 to 100), Morningglory [7, 16]: 0
- Plant response rating, Morningglory ([7]; 62 g ai/ha): 0
- Plant response rating, Morningglory ([7]; 125 g ai/ha): 0
- Plant response rating, Morningglory ([7]; 250 g ai/ha): 0
- Plant response rating (scale of 0 to 100), Nutsedge, Yellow [8, 16]: 0
- Plant response rating, Nutsedge, Yellow ([8]; 62 g ai/ha): 0
- Plant response rating, Nutsedge, Yellow ([8]; 125 g ai/ha): 0
- Plant response rating, Nutsedge, Yellow ([8]; 250 g ai/ha): 0
- Plant response rating (scale of 0 to 100), Oilseed Rape [9, 16]: 80
- Plant response rating, Oilseed Rape ([9]; 62 g ai/ha): 85
- Plant response rating, Oilseed Rape ([9]; 125 g ai/ha): 85
- Plant response rating, Oilseed Rape ([9]; 250 g ai/ha): 90
- Plant response rating (scale of 0 to 100), Pigweed [10, 16]: 0
- Plant response rating, Pigweed ([10]; 62 g ai/ha): 25
- Plant response rating, Pigweed ([10]; 125 g ai/ha): 60
- Plant response rating, Pigweed ([10]; 250 g ai/ha): 70
- Plant response rating (scale of 0 to 100), Ragweed [11, 16]: 0
- Plant response rating, Ragweed ([11]; 62 g ai/ha): 25
- Plant response rating, Ragweed ([11]; 125 g ai/ha): 30
- Plant response rating, Ragweed ([11]; 250 g ai/ha): 45
- Plant response rating (scale of 0 to 100), Ryegrass, Italian [12, 16]: 0
- Plant response rating, Ryegrass, Italian ([12]; 62 g ai/ha): 10
- Plant response rating, Ryegrass, Italian ([12]; 125 g ai/ha): 35
- Plant response rating, Ryegrass, Italian ([12]; 250 g ai/ha): 70
- Plant response rating (scale of 0 to 100), Soybean (soybean (Glycine max); [16]): 0
- Plant response rating, Soybean (soybean (Glycine max); 62 g ai/ha): 0
- Plant response rating, Soybean (soybean (Glycine max); 125 g ai/ha): 10
- Plant response rating, Soybean (soybean (Glycine max); 250 g ai/ha): 100
- Plant response rating (scale of 0 to 100), Velvetleaf [13, 16]: 0
- Plant response rating, Velvetleaf ([13]; 62 g ai/ha): 35
- Plant response rating, Velvetleaf ([13]; 125 g ai/ha): 25
- Plant response rating, Velvetleaf ([13]; 250 g ai/ha): 45
- Plant response rating (scale of 0 to 100), Waterhemp [14, 16]: 0
- Plant response rating, Waterhemp ([14]; 62 g ai/ha): 0
- Plant response rating, Waterhemp ([14]; 125 g ai/ha): 45
- Plant response rating, Waterhemp ([14]; 250 g ai/ha): 70
- Plant response rating (scale of 0 to 100), Wheat [15, 16]: 5
- Plant response rating, Wheat ([15]; 62 g ai/ha): 0
- Plant response rating, Wheat ([15]; 125 g ai/ha): 35
- Plant response rating, Wheat ([15]; 250 g ai/ha): 70

Structure (SMILES): O=C1NCC(c2cccc(OC(F)F)c2)C1C(=O)Nc1ccc(F)cc1F (centres unmarked) [Compound 421]
- Plant response rating, Galium ([1]; 31 g ai/ha): 0
- Plant response rating, Galium ([1]; 62 g ai/ha): 0
- Plant response rating, Galium ([1]; 125 g ai/ha): 55
- Plant response rating, Galium ([1]; 250 g ai/ha): 45
- Plant response rating, Barnyardgrass ([2]; 31 g ai/ha): 60
- Plant response rating, Barnyardgrass ([2]; 62 g ai/ha): 80
- Plant response rating, Barnyardgrass ([2]; 125 g ai/ha): 90
- Plant response rating, Barnyardgrass ([2]; 250 g ai/ha): 95
- Plant response rating, Blackgrass ([3]; 31 g ai/ha): 40
- Plant response rating, Blackgrass ([3]; 62 g ai/ha): 45
- Plant response rating, Blackgrass ([3]; 125 g ai/ha): 70
- Plant response rating, Blackgrass ([3]; 250 g ai/ha): 70
- Plant response rating, Corn (corn (Zea mays); 31 g ai/ha): 0
- Plant response rating, Corn (corn (Zea mays); 62 g ai/ha): 0
- Plant response rating, Corn (corn (Zea mays); 125 g ai/ha): 60
- Plant response rating, Corn (corn (Zea mays); 250 g ai/ha): 75
- Plant response rating, Crabgrass, Large ([4]; 31 g ai/ha): 90
- Plant response rating, Crabgrass, Large ([4]; 62 g ai/ha): 95
- Plant response rating, Crabgrass, Large ([4]; 125 g ai/ha): 90
- Plant response rating, Crabgrass, Large ([4]; 250 g ai/ha): 95
- Plant response rating, Foxtail, Giant ([5]; 31 g ai/ha): 80
- Plant response rating, Foxtail, Giant ([5]; 62 g ai/ha): 85
- Plant response rating, Foxtail, Giant ([5]; 125 g ai/ha): 85
- Plant response rating, Foxtail, Giant ([5]; 250 g ai/ha): 90
- Plant response rating, Johnsongrass ([6]; 31 g ai/ha): 0
- Plant response rating, Johnsongrass ([6]; 62 g ai/ha): 0
- Plant response rating, Johnsongrass ([6]; 125 g ai/ha): 0
- Plant response rating, Johnsongrass ([6]; 250 g ai/ha): 0
- Plant response rating, Morningglory ([7]; 31 g ai/ha): 0
- Plant response rating, Morningglory ([7]; 62 g ai/ha): 0
- Plant response rating, Morningglory ([7]; 125 g ai/ha): 15
- Plant response rating, Morningglory ([7]; 250 g ai/ha): 20
- Plant response rating, Nutsedge, Yellow ([8]; 31 g ai/ha): 0
- Plant response rating, Nutsedge, Yellow ([8]; 62 g ai/ha): 0
- Plant response rating, Nutsedge, Yellow ([8]; 125 g ai/ha): 0
- Plant response rating, Nutsedge, Yellow ([8]; 250 g ai/ha): 0
- Plant response rating, Oilseed Rape ([9]; 31 g ai/ha): 10
- Plant response rating, Oilseed Rape ([9]; 62 g ai/ha): 25
- Plant response rating, Oilseed Rape ([9]; 125 g ai/ha): 30
- Plant response rating, Oilseed Rape ([9]; 250 g ai/ha): 35
- Plant response rating, Pigweed ([10]; 31 g ai/ha): 0
- Plant response rating, Pigweed ([10]; 62 g ai/ha): 0
- Plant response rating, Pigweed ([10]; 125 g ai/ha): 35
- Plant response rating, Pigweed ([10]; 250 g ai/ha): 60
- Plant response rating, Ragweed ([11]; 31 g ai/ha): 0
- Plant response rating, Ragweed ([11]; 62 g ai/ha): 30
- Plant response rating, Ragweed ([11]; 125 g ai/ha): 40
- Plant response rating, Ragweed ([11]; 250 g ai/ha): 60
- Plant response rating, Ryegrass, Italian ([12]; 62 g ai/ha): 40
- Plant response rating, Ryegrass, Italian ([12]; 125 g ai/ha): 35
- Plant response rating, Ryegrass, Italian ([12]; 250 g ai/ha): 65
- Plant response rating, Soybean (soybean (Glycine max); 62 g ai/ha): 0
- Plant response rating, Soybean (soybean (Glycine max); 125 g ai/ha): 0
- Plant response rating, Soybean (soybean (Glycine max); 250 g ai/ha): 10
- Plant response rating, Velvetleaf ([13]; 62 g ai/ha): 20
- Plant response rating, Velvetleaf ([13]; 125 g ai/ha): 20
- Plant response rating, Velvetleaf ([13]; 250 g ai/ha): 40
- Plant response rating, Waterhemp ([14]; 62 g ai/ha): 30
- Plant response rating, Waterhemp ([14]; 125 g ai/ha): 80
- Plant response rating, Waterhemp ([14]; 250 g ai/ha): 85
- Plant response rating, Wheat ([15]; 62 g ai/ha): 0
- Plant response rating, Wheat ([15]; 125 g ai/ha): 25
- Plant response rating, Wheat ([15]; 250 g ai/ha): 40
